Experiments:
Echovirus 1 (EV1) = format: cell-based, Farouk strain
[1] = system: Coxsackie virus A9 (CVA9); assay: CVA9 infection of A549 cells, cell viability (CTG assay / crystal violet); format: cell-based, Griggs strain; conditions: 18 h post infection
Method: (§1) FIG. 1. […] A549 cells were treated for 1 h with different concentrations of vemurafenib before Echovirus 1 (EV1), Coxsackie virus B3 (CVB3) or Coxsackie virus A9 (CVA9) infection, and vemurafenib was present after addition of viruses. Further, non-infected control cells were included. After 18 h post infection, the cell viability was determined by cell viability Glo-titer assay according to the instructions by the manufacturer (CTG assay, which measures cellular ATP levels, Promega; left figure) or crystal violet staining as described before (right figure; Martikainen et al., 2015). Values are means±SD.
(§2) Adenocarcinoma human alveolar basal epithelial (A549, ATCC) cells were cultured in Dulbecco's modified eagle medium (DMEM; Gibco) supplemented with 10% fetal bovine serum (FBS; Gibco), 1% Glutamax (Gibco) and 1% penicillin and streptomycin antibiotics (Gibco) for 24 h. […] In addition, non-infected control cells were included. After 18 h post infection (p.i.), the cell viability was determined by cell titer-Glo assay according to the instructions by the manufacturer (CTG assay, which measures cellular ATP levels, Promega; left figure) or crystal violet staining as described before (right figure; Martikainen et al. 2015). Values are means±SD.

[2] = system: Coxsackie virus B3 (CVB3); assay: CVB3 infection of A549 cells, cell viability (CTG assay / crystal violet); format: cell-based, Nancy strain; conditions: 18 h post infection
Method: as §1, §2

[3] = system: Coxsackie virus B (CVB) serotypes (1-6); assay: CVB serotypes 1-6 infection of A549 cells, crystal violet viability; format: cell-based; conditions: 18 h of infection, dose dependent
Method: FIG. 2. […] Different concentrations of vemurafenib were tested against different Coxsackie virus B (CVB) serotypes (1-6) by treating A549 cells with the drug for 1 h and then infecting the cells with the viruses. Cell viability was determined after 18 h of infection using crystal violet staining. The results were normalized to control sample with no virus infection and 0 μM concentration of vemurafenib (CTRL). The values are means±SD.
Finally, the cell viability was determined using crystal violet staining. The results were normalized to control sample with no virus infection and 0 μM concentration of vemurafenib (CTRL). The values are means±SD.

[4] = system: CVB4 E2 diabetogenic strain; assay: CVB4 infection of Min-6 pancreatic beta cells, crystal violet viability; format: cell-based; conditions: mouse pancreatic beta cell line Min-6, 0.25-7.5 μM, MOI of 1, crystal violet
Poliovirus 3 = format: cell-based, polio-3 (vaccine strain); conditions: A549 cells, 2 days of infection, Cell Titer Glo
CV-B4 E2 = assay: CVB4 infection in mice, infectious viral titer in heart and pancreas; format: in vivo, Hsd:ICR(CD-1) female mice; conditions: 10 mg/kg intraperitoneally once a day for 5 days, sacrificed on day 6
EV1-infected A549 cells = format: cell-based, human
CVB4 = assay: Persistent CVB4 infection of Panc-1 cells, viral titers and viral RNA; format: cell-based; conditions: 7.5 μM each 2 to 3 days
[5] = system: human parechovirus 1 (HPEV1); format: cell-based; conditions: A549 cells, 5 μM, 6 h
[6] = system: semliki forest virus (SFV); format: cell-based; conditions: Hela cells, 5 or 10 μM, 6 h
[7] = system: vesicular stomatitis virus (VSV); format: cell-based
[8] = system: respiratory syncytial virus (RSV); format: cell-based; conditions: Hela cells, 5 or 10 μM, 20 h
EV1 [9] = assay: Time of addition assay, EV1 infection of A549 cells, VP1 labeling; format: cell-based; conditions: EV1, 5 μM, infection followed until 6 h p.i.
EV1 [10] = assay: EV1 replication in A549 cells by dsRNA (J2) labeling; format: cell-based; conditions: 5 μM, 3, 4 or 6 h p.i.
EV1 IRES = format: cell-based, EV1 Farouk strain; conditions: Hela cells, 5 μM, 24 h
HPEV1 IRES = format: cell-based, HPEV1 strain 22 Harris; conditions: Hela cells, 5 μM, 24 h
viral protease 2A = viral protease 2A (Coxsackievirus B3, UniProt P03313); assay: Viral protease 2A action on PABP in Hela cell homogenate, western blotting; format: biochemical; conditions: 5, 10 or 20 μM, RT for 18 h
Method: (§3) FIG. 18. […] The results were detected by western blotting and known cellular targets for 2A and 3C, poly A binding protein (PABP) and stress granule assembly factor 1 (G3BP1) respectively, were immunolabeled. The results are representative of two separate experiments.
(§4) The reaction was carried out in buffer containing 20 mM HEPES (pH 7.4), 0.12 M KCH3COO, 4 mM Mg(CH3COO)2 and 5 mM DTT with or without vemurafenib (5, 10 or 20 μM) being present. The reactions were carried out at RT for 18 h, after which they were terminated by adding Laemmli sample buffer and heating at 100° C. for 9 min. The samples were run in 4-20% Miniprotean TGX stain free gel (Biorad). The gel was UV-activated for 5 min with Chemidoc MP (Biorad) to reveal the total protein amount, after which the proteins were transferred to PVDF membrane (Immobilon-P, Merck Millipore). Next, the blot was blocked o/n with 5% BSA in 0.05% tween in TBS. Poly A binding protein (PABP) was detected using 1:100 dilution of mouse anti-PABP (Santa Cruz). Stress granule assembly factor 1 G3BP1 was detected using 1:1000 dilution of mouse anti-G3BP1 (Santa Cruz).

viral protease 3C = viral protease 3C (Coxsackievirus B3, UniProt P03313); assay: Viral protease 3C action on G3BP1 in Hela cell homogenate, western blotting; format: biochemical; conditions: 5, 10 or 20 μM, RT for 18 h
Method: as §3, §4

3D polymerase of CVB3 = 3D polymerase of CVB3 (Coxsackievirus B3, UniProt P03313); assay: RNA elongation assay with viral 3D polymerase; format: biochemical; conditions: various inhibitor concentrations, RT
Method: FIG. 19. […] An RNA elongation assay was used to study the effect of vemurafenib on viral 3D polymerase. […] At 15 min, GTP and ATP were added along with RNA2 (SEQ ID NO:2) allowing 3D+RNA1 complexes to incorporate ATP and GTP (forming +2 product) as well as initiate and incorporate GTP and RNA2 (forming +1 product). After 10 min, each reaction was “chased” to fully elongated product by adding the remaining NTPs.
An RNA elongation assay was used to study the effect of vemurafenib on viral 3D polymerase. […] At 15 min, GTP and ATP were added along with RNA2 (SEQ ID NO: 2) allowing 3D+RNA1 complexes to incorporate ATP and GTP (forming +2 product) as well as initiate and incorporate GTP and RNA2 (forming +1 product). After 10 min, each reaction was “chased” to fully elongated product by adding the remaining NTPs.

influenza A(H1N1)pdm09 = conditions: reported by McKimm-Breschkin et al.; cited from earlier work
adenovirus 5 = assay: Adenovirus 5 GFP transduction of A549 cells; conditions: 5 μM, 17 h
[11] = system: human rhinovirus B14 (HRVB14); assay: HRVB14 replication in Hela cells by dsRNA (J2) labeling; conditions: 5 μM, 6 h at +34° C.
EV1 RNA = assay: Transfection of EV1 genomic RNA into A549 cells, VP1 labeling; conditions: 5 μM, 6 h
EV1 particle = assay: Real-time spectroscopic assay of EV1 particle opening (Sybr green II); conditions: 5 μM, 3 h at +37° C.
EV1 [12] = assay: Uncoating of radioactively labeled EV1 in endosomes of A549 cells, sucrose gradients; conditions: 5 μM, 4 h p.i.
[13] = 1 h pre-treatment, dose dependent

Chain of viral protease 3C (P03313 1541-1723): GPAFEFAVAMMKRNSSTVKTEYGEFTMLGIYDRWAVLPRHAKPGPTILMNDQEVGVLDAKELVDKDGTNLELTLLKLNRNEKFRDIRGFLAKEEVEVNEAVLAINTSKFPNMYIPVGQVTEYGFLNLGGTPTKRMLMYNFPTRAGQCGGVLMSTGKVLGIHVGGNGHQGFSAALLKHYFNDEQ
Chain of viral protease 2A (P03313 852-1001): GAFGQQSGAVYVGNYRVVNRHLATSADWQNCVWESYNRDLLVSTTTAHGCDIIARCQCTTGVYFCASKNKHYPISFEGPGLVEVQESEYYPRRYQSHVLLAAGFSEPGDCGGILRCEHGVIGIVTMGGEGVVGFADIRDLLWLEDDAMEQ
Chain of 3D polymerase of CVB3 (P03313 1724-2185): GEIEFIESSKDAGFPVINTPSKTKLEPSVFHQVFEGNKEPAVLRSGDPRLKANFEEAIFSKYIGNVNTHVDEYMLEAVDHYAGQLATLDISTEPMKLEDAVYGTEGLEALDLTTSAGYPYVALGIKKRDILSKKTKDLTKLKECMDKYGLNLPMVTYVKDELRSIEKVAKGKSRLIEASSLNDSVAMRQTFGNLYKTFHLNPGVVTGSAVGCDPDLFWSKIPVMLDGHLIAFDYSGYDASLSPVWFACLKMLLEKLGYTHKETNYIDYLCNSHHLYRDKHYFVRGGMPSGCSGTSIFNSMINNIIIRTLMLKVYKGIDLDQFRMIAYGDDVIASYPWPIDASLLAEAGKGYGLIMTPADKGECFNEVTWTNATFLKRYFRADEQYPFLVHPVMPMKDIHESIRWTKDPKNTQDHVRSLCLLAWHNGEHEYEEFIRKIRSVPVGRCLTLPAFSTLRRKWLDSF

CCCS(=O)(=O)Nc1ccc(F)c(C(=O)c2c[nH]c3ncc(-c4ccc(Cl)cc4)cc23)c1F [vemurafenib, N-(3-(5-(4-chlorophenyl)-1H-pyrrolo[2,3-b]pyridine-3-carbonyl)-2,4-difluorophenyl)propane-1-sulfonamide]
effect on EV1 infection (cell viability) (Echovirus 1 (EV1)): prevents the infection
effect on CVA9 infection (cell viability) [1, 13]: rescued the cells
concentration of maximal inhibition of CVA9 infection [1]: 5 µM
effect on CVB3 infection (cell viability) [2, 13]: rescued the cells
concentration of maximal inhibition of CVB3 infection [2]: 5 µM
effect on infection by CVB serotypes 1 to 6 (cell viability) [3]: inhibited
effect on CVB4 infection of Min-6 cells (cell viability) [4]: efficiently rescued
effect on polio-3 infection (cell viability) (Poliovirus 3): efficiently rescued
levels of infectious CVB4 in heart tissue (CV-B4 E2): significantly decreased
levels of infectious CVB4 in pancreas tissue (CV-B4 E2): significantly decreased
effects on BRAF in the transcriptomics study (EV1-infected A549 cells): no effects
effect on EV1-induced up- or downregulation of mRNAs (EV1-infected A549 cells; A549 cells, 6 h pi, Illumina Human HT-12 v4): attenuated almost all the effects of the virus
presence of viral RNA in persistently infected Panc-1 cells (CVB4; qPCR at day 7, 9, 14 and 21): totally eradicated
level of infectious viral particles (capsid) in persistently infected Panc-1 cells (CVB4; supernatant titers on HEp-2 cells): totally eradicated
effect on HPEV1 infection (VP1 positive cells) [5]: not effective
effect on SFV infection (GFP infection percentage) [6]: not effective
effect on VSV infection (GFP infection percentage) [7]: not effective
effect on RSV infection (GFP infection percentage) [8]: not effective
time of administration at which efficacy is lost (EV1 [9]): ≥ 3 h p.i.
effect on EV1 replication (replication intermediate, dsRNA) (EV1 [10]): prevented
effect on EV1 IRES-based translation (mCherry fluorescence) (EV1 IRES): does not have direct effects
effect on HPEV1 IRES-based translation (mCherry fluorescence) (HPEV1 IRES): does not have direct effects
effect on viral protease 2A action (PABP) (viral protease 2A): does not have direct effects
effect on viral protease 3C action (G3BP1) (viral protease 3C): does not have direct effects
effect on CVB3 3D polymerase action (3D polymerase of CVB3): does not prevent its action, nor binding or elongation of the nascent RNA chain
efficacy against influenza A(H1N1)pdm09 infection compared with oseltamivir (influenza A(H1N1)pdm09): greater efficacy than oseltamivir
effect on adenovirus 5 transduction (GFP positive cells) (adenovirus 5): not effective
effect on HRVB14 replication (dsRNA J2 intensity) [11]: decreases the replication
effect on infection after transfection of genomic RNA of EV1 (EV1 RNA): totally prevented infection
direct virucidal effect on EV1 particle (genome release) (EV1 particle): does not have direct virucidal effects
effect on uncoating of EV1 inside endosomes (EV1 [12]): does not affect the uncoating
